Test results: a melting point compilation (Tetko et al.)

SMILES	melting point [°C]
CCC12CC3CC(CC(Br)(C3)C1)C2	23 to 24
Cc1ccc(C(c2ccc(C)o2)c2ccccc2O)o1	65
O=C(CC(=O)C(F)(F)F)c1ccco1	20.5
CCOC(=O)c1cc2c(N)c(C(=O)OCC)sc2nc1C(F)(F)F	181 to 183
O=C(O)COc1nn(Cc2ccccc2)c2ccccc12	160
OC(c1ccccc1)c1ccc(Br)cc1 (centres undefined)	61 to 63
C#CCOc1cc(-n2nc3n(c2=O)CCCC3)c(Cl)cc1Cl	168
CC(=O)Nc1ccc(Cl)c(N)c1	168 to 172
NC(Cc1n[nH]c2ccccc12)C(=O)O (centres undefined)	240
COc1ccc2c(CCN)c[nH]c2c1	143 to 146
CC(C)(C)OC(=O)NC(CCC(N)=O)C(=O)O (centres undefined)	119
FC(F)(F)c1cc(Cl)c2cc(Cl)ccc2n1	104 to 107
CCOC(=O)Cc1cc(CC(=O)OCC)c(NC(=O)OCC)cc1NC(=O)OCC	140
CNc1ccc(N)c2c1C(=O)c1ccccc1C2=O	193
NCc1cc2cc(Br)ccc2o1	39 to 40
Cc1ccc(C)c2c1COC2=O	88
Brc1cccc(Br)c1	-7
CC1CC(OC(=O)C(O)c2ccccc2)CC(C)(C)C1 (centres undefined)	56
CCOC(=O)[C@]12C[C@@H](c3ccccc3)c3ccccc3[C@H]1c1ccccc1OC2=O	162
N#CCc1ccc(OCc2ccc(Cl)c(Cl)c2)cc1	76 to 77
COc1cccc(C=O)c1OC	52
CNC(=Nc1ncccc1C)SC	25 to 27
CCCCCCCCCCCCCCCC(=O)OCC	24
COC(=O)c1cc2ccccc2cc1C(=O)OC	49
CCCCC1=NC2(CCCC2)C(=O)N1Cc1ccc(-c2ccccc2-c2nnn[nH]2)cc1	180
Cc1nn(C)c(Cl)c1N=Nc1ccccc1	44 to 46

SMILES	melting point [°C]
O=C(O)c1cccc(OC(F)(F)F)c1	89
CCCCC(C(N)=O)n1nnc2ccccc21 (centres undefined)	118
CCN(CC)C(C)CN1c2ccccc2Sc2ccccc21 (centres undefined)	53
CCN1C(=O)CSC1=S	38
CCOC(=O)c1nn(-c2ccc(C)cc2)c(C)c1C(=O)c1noc(-c2ccc(Cl)cc2)c1S(=O)(=O)c1ccccc1	230
O=S(=O)(CF)c1ccccc1	53
CCOC(=O)CSc1nc(C)n[nH]1	99 to 101
O=C(OCC(=O)N1CCOCC1)c1ccccc1	104
O=Cc1ccc(OC2CCOCC2)cc1	95 to 96
C=C1C(=O)C23C4CC5C(C)(C=O)CCCC5(C(=O)O4)C2C(OC(C)=O)CC1C3O (centres undefined)	209
CC(O)CC(C)(C)C (centres undefined)	-60
SCc1ccc(Br)cc1	27
COc1ccccc1C=C1C(=O)NN=C1c1c(O)c2ccccc2n(C)c1=O	266
CCCC(CCC)C(=O)O	125
O=C(O)c1ccnnc1	237 to 240
S=C(n1ccnc1)n1ccnc1	96 to 103
CCCCCC(=O)c1ccc(O)cc1O	57
CCC=C(C)C	-135
O=C(O)c1cccc(OC(F)(F)C(F)F)c1	127 to 128
N#CCCOc1ccc(Cl)cc1	45 to 47
CCOC(=O)C1=C(N)n2nc(C(F)(F)F)nc2NC1c1ccc(Cl)cc1 (centres undefined)	198
O=C1C=C(O)C(=O)C=C1O	220
CCN(C)C(=O)COC(=O)c1ccccc1	20
Cc1cccc2c1sc1c(C)cccc12	147 to 153
CCOC(=O)NN(C(=O)OCC)c1c(-c2ccccc2)nc2n1CCS2	179 to 180
CCCS(=O)(=O)CCC	29.5

SMILES	melting point [°C]
O=C(Nc1c[nH]c(=O)[nH]c1=O)C(F)(F)C(F)(F)C(F)(F)C(F)(F)C(F)(F)C(F)(F)C(F)(F)C(F)(F)F	250 to 252
CCCCNc1cc(=O)oc2ccccc12	118
CN(C(=O)CN(CCO)CC(=O)N(C)C(C)(C)Cc1ccccc1)C(C)(C)Cc1ccccc1	104
Nc1cccc2cc3ccccc3cc12	116
N#CC1OCC(OC(=O)c2ccccc2)C(OC(=O)c2ccccc2)C1OC(=O)c1ccccc1 (centres undefined)	155
CON(C)C(=O)C=P(c1ccccc1)(c1ccccc1)c1ccccc1	183
CC(=O)CCc1ccc2c(c1)NC(C)CC2 (centres undefined)	54
O=C(CBr)c1ccc2c(c1)OCO2	91 to 93
CNC(=S)C#N	37 to 46
CCNc1nc(NC(C)CC)nc(OC)n1 (centres undefined)	87
COc1ccc(C(F)(F)F)cc1C(=O)O	110
N#CC(Br)c1ccccc1 (centres undefined)	29
NC(=O)C(F)(F)C(F)F	57 to 59
O=C(O)c1cc(O)ccc1[N+](=O)[O-]	170
CCOc1ccc(-c2nnc3n2NC(c2ccc(N(C)C)cc2)S3)cc1 (centres undefined)	137
CC(C)(C(=O)c1cccnc1)c1cccnc1	50.5
Cc1ccc(C(=O)O)c(Cl)n1	160
O=Cc1ccc(-c2ccccn2)s1	122 to 123
OCc1ccc2ccccc2c1	81.3
O=C(Nc1ccccc1)c1ccccc1I	137
Cn1nnc2cc(C=O)ccc21	162
O=[N+]([O-])c1cc(I)cc([N+](=O)[O-])c1	101
c1ccc(-c2noc(-c3ccccc3)n2)cc1	109
O=C(c1ccccc1)C(c1ccccc1)c1cc(Cl)c([N+](=O)[O-])cc1[N+](=O)[O-] (centres undefined)	131
CC(=O)O[C@@H]1[C@@H](OC(C)=O)[C@H](C)O[C@@H](OCc2ccccc2)[C@@H]1OC(C)=O	110 to 113
O=c1ccnc2n(-c3ccccc3)[nH]cc1-2	167

SMILES	melting point [°C]
Nc1c(I)cc(I)c(C(=O)O)c1I	196 to 199
CN(C)CCOc1ccccc1C(=O)O	108 to 109
O=C(Cl)c1nnc(-c2ccccc2)o1	80 to 90
NC(=S)c1ccc(-c2ccccn2)s1	198 to 200
O=C(OCc1ccccc1Cl)ON1C(=O)CCC1=O	103 to 105
N#C/C(=N\Nc1ccc(S(=O)(=O)O)cc1)c1nc2ccccc2s1	193
N#C/C(=N\Nc1cccc(C(F)(F)F)c1)c1nc2ccccc2[nH]1	270
Cc1ccc(C(=O)c2noc(-c3ccc([N+](=O)[O-])cc3)c2S(=O)(=O)c2ccccc2)cc1	170
FC(F)(F)N=C1SC(=Nc2ccccc2)N(c2ccccc2)C1=NC(F)(F)F	118
CC(=O)c1c(O)c(C(C)(C)C)cc(C(C)(C)C)c1O	180
CCC(CCC(C)C1CCC2C3CC=C4CC(O)CCC4(C)C3CCC12C)C(C)C (centres undefined)	147
COc1c(C(C)C)oc2cc3oc(=O)ccc3cc12	85
CC(C)S(=O)(=O)c1csc(C(=O)Cl)c1Cl	170 to 171
O=C1C(=Cc2ccc(O)c(O)c2)Oc2cc(O)ccc21	303
N#CC(=O)c1ccccc1	32.5
COc1ccc(C2(C#N)CCCCC2)cc1	43
NC(CO)CO	54
O=C(NC(CO)C(O)c1ccc([N+](=O)[O-])cc1)C(Cl)Cl (centres undefined)	150
O=C(c1ccccn1)C(O)c1ccccn1 (centres undefined)	151 to 158
CC(=O)c1ccc(O)c([N+](=O)[O-])c1	132
CC(C)(C)OC(=O)N1c2ccccc2CC1C(=O)O (centres undefined)	121 to 122
Cc1ccc(-c2cc(C(=O)O)c(C)o2)cc1	230 to 232
O=C(Nc1nc2ccccc2s1)C(F)(F)C(F)(F)C(F)(F)C(F)(F)C(F)(F)C(F)(F)C(F)(F)C(F)(F)F	168 to 170
O=C(O)CNC(=O)OCc1ccccc1	121
O=C(O)COc1ccc(C(=O)c2cccs2)c(Cl)c1Cl	149
CCSc1nnc(N)s1	133 to 136

SMILES	melting point [°C]
C=CC(=O)OCCN(C)C	-60
CC(CSc1ccc(Cl)cc1)C(=O)O (centres undefined)	63 to 65
O=[N+]([O-])OC1COC2C(O[N+](=O)[O-])COC12 (centres undefined)	61
O=C1C(=C2C=Cc3ccccc3N2)C(=O)c2ccccc21	240 to 241
O=C(O)CCCc1ccc(Br)cc1	67 to 69
CNC=O	-3.2
O=[N+]([O-])c1ccc2c(c1)oc1ccccc12	182
CCOC(=O)c1ccc(OC)cn1	39
CC(C)CCCCCCCO	5
OC(CNc1ccccn1)c1ccccc1 (centres undefined)	83.5
O=C(O)c1cc(Br)c(Br)s1	230
C=CCOC(=O)CC(C)=O	-85
Cc1c(C#N)c2ccccc2n1C	105
COC1=C(OC)/C(=C/C2CCC=CC23OC(=O)C(OC)=C3OC)OC1=O (centres undefined)	118 to 120
Nc1c(F)c(F)c(-c2c(F)c(F)c(N)c(F)c2F)c(F)c1F	175 to 179
O=C1NC(=NN=Cc2ccccc2)SC1=Cc1ccccc1	295
C[Si](C)(C)[Si]([Si](C)(C)C)([Si](C)(C)C)[Si](C)(C)C	267
CCCCC1CCCC1	-108
O=C1CCc2cc3c(cc2N1)NCCC3	235
O=C(CS)Nc1ccc2ccccc2c1	112
COc1cc(C)c(C=O)cc1C	31 to 35
O=C(O)C1CCCN(C(=O)OCc2ccccc2)C1 (centres undefined)	90 to 94
Cc1ccc(C)c2ncccc12	4.5
CCC(C(=O)NC(=O)NC(C)=O)c1ccccc1 (centres undefined)	100
c1ccc2c(c1)-c1cc3ccccc3c3cc4ccccc4c-2c13	232
